Measured values from publication PMC6583776 (Journal of the American Chemical Society, 2019).

Experiments:
[1] = tested on: HCV (HCVcc-Luc) infection of Huh7.5.1 cells; test: HCV infection inhibition assay; type: cell-based; details: relative to aglaroxin C (6)
[2] = tested on: Huh7.5.1 cells; test: Cytotoxicity, CellTiter-Glo Cell Viability Luminescent Assay; type: cell-based
[3] = tested on: cap-dependent translation (Firefly luciferase); type: biochemical; details: 1 μM compound, Krebs-2 extracts, relative to DMSO
[4] = tested on: HCV IRES-dependent translation (Renilla luciferase); type: biochemical; details: 1 μM compound, Krebs-2 extracts, relative to DMSO
[5] = tested on: HCV; type: cell-based; details: time-of-addition; racemic compounds
[6] = tested on: translation; details: ref 9p; cited from earlier work
[7] = tested on: Dengue virus (serotype 2, Thailand 16681 strain); type: cell-based; details: Huh7.5.1 cells, MOI 0.1, 2 μM compound for 3 h, RNA 48 h post-infection
[8] = tested on: hepatitis C viral (HCV) entry; details: at a low μM concentration; cited from earlier work

Compound | translation inhibition of firefly luciferase (cap-dependent) [3] | inhibition of HCV mRNA (IRES-dependent) translation [4] | anti-HCV activity, compound added 3 h after infection was initiated [5] | anti-HCV activity, compound added together with the virus [5] | translation inhibition (in words) [6] | other results
COc1ccc([C@@]23Oc4cc(OC)cc(OC)c4[C@]2(O)c2nc(-c4cccc(OC)c4)[nH]c(=O)c2[C@H]3c2ccccc2)cc1 [12s] | minimal | not inhibited | partially lost their activity | maximal anti-HCV activity |  | inhibition of HCV infection in comparison to 6 (fold) [1]: three-fold greater inhibition; cell death at 200 μM [2]: less than 50%; cell death reached [2]: < 50%; maximum cytotoxicity plateau, cell death [2]: 35%
CONC(=O)[C@H]1[C@@H](O)[C@@]2(O)c3c(OC)cc(OC)cc3O[C@@]2(c2ccc(OC)cc2)[C@@H]1c1ccccc1 [CR-1–31-B] | strong inhibition |  |  |  |  | 
COc1ccc([C@@]23Oc4cc(OC)cc(OC)c4[C@]2(O)C2=C(C(=O)N4CCC[C@H]4N2)[C@H]3c2ccccc2)cc1 [compound 5, aglaiastatin] |  |  |  |  | promising translation inhibitor | 
COc1ccc([C@@]23Oc4cc(OC)cc(OC)c4[C@]2(O)[C@H](O)[C@H](C(=O)N(C)C)[C@H]3c2ccccc2)cc1 [rocaglamide] |  |  |  |  |  | inhibition of Dengue virus infection [7]: inhibited
aglaroxin C [compound 6] | minimal | not inhibited | partially lost their activity | maximal anti-HCV activity | only moderate translation inhibition | inhibition of HCV entry into host cells [8]: inhibited
